Patent US12662714B2, “Method for separation of adjacent lanthanide elements” (UT-Battelle, LLC, priority 2022, dated 2026)

Columns and labels:
[1] = Optimized separation of adjacent Ln pair Nd-Pr with 1 and Ligand 3
Experimental: The synergistic use of 1 and Ligand 3 was further optimized to maximize the separation of one adjacent Ln pair Nd—Pr using the percentage of Ln extracted as a guide. The separation of Nd and Pr reached equilibrium in less than 1 hour, and the D values for both increased at higher HNO3 and Ligand 3 concentrations (FIGS. 3b and 3c). Ligand 3, being a neutral ligand, requires co-extraction of counterions (i.e., three NO3^−) with Ln; thus, the extraction of Lns with DGA is favored at high nitrate concentration, and the process is reversed at low anion concentration.
The highest selectivity of 4.9±0.2 for Nd—Pr pair was obtained when separating 2.5 mM Nd and Pr, each using 13 mM of 1 in 1 M HNO3 with 0.1 M of Ligand 3 in the oil phase and equilibrating for 30 min at 25.5° C. Next, the recovery of Nd and Pr from each phase after extraction using the 1-Ligand 3-HNO3 system was investigated. […] The charged ligand (CO3^2−) outcompetes neutral ligand 1 in complexing with Ln ions; furthermore, the thermodynamics of the Ln2(CO3)3 formation is highly favorable due to high crystal lattice energy of the salt. The identity of the precipitate was confirmed using Fourier-transform infrared spectroscopy (FTIR), and the results are in good agreement with commercially available Pr and Nd carbonate salts. Ligand 1 remains in the aqueous solution that can be further recycled in the lanthanide separation process.

[2] = Solvent extraction of Lns, separation factor Sm/Nd; conditions: 0.1 M DGA, 1 M HNO3, 1 h
Experimental: (§1) General procedure: a 500 microliter (μL) aqueous phase consisting of 7 mM Ln(III) (0.5 mM of each Ln(III)) in 1 M HNO3 without or with aqBLPhen 1 (3, 13, or 25 mM) was contacted with an equal volume of organic phase containing 0.1 M DGA (3, 4, or 5). The two phases were contacted in a 1:1 ratio of organic/aqueous by end-over-end rotation in individual 1.8 mL capacity snap-top Eppendorf tubes using a rotating wheel in an airbox set at 25.5±0.5° C. Contacts were performed in triplicate with a contact time of 1 hour. The samples were centrifuged at 1811 g for 2 min at room temperature to separate the phases. Each triplicate was then sub-sampled, using a 300 μL aliquot of the aqueous phase transferred to individual polypropylene tubes and diluted with 2% HNO3 for analysis using ICP-MS or ICP-OES. Two samples of the initial lanthanide solution were similarly prepared.
(§2) The ability of 1 and DGA to separate Lns was evaluated using a two-component, immiscible solvent system: nitric acid (aqueous phase containing 1) and n-dodecane with 10 vol % 1-octanol (oil phase containing DGA). The amount of Ln partitioned from the aqueous phase into the oil phase was measured using inductively coupled plasma optical emission spectroscopy or mass spectrometry. The Ln concentration in each phase was then used to calculate the separation efficiency.
(§3) The percentage of Lns in the aqueous and the oil phases is presented in FIGS. 1a-1i. for each DGA in the absence and presence of the aqueous complexant 1 (E=([Ln1]/[Ln1]0)×100%). The distribution ratios (i.e., D=[Ln1]org/[Ln1]aq) for select Lns are listed in Table 1, which also include selectivities (i.e., SFLn1/Ln2=DLn1/DLn2), for several Ln pairs. An efficient separation of Lns was achieved when DLn1>1 and DLn2<1 or ELn1>50% and ELn2<50%. […] Neither of the three DGAs can separate Lns in a single extraction stage.

[3] = Solvent extraction of Lns, distribution ratio of La; conditions: 1 M HNO3, 1 h
Experimental: as §1, §2, §3

[4] = Extraction of 14 Lns from aqueous phase into oil phase; conditions: 0.1 M DGA alone; 14 Lns 0.5 mM each; 1 M HNO3
Experimental: as §1, §2, §3

[5] = Solvent extraction of Lns, distribution ratio of Sm; conditions: 13 mM Ligand 2 used instead of ligand 1; 0.1 M DGA; 1 M HNO3; 1 h
[6] = Solvent extraction of Lns, distribution ratio of Nd; conditions: 0.1 M DGA, 1 M HNO3, 1 h
Experimental: as §1, §2, §3

[7] = Solvent extraction of Lns, distribution ratio of La; conditions: 13 mM Ligand 2 used instead of ligand 1; 0.1 M DGA; 1 M HNO3; 1 h
[8] = Solvent extraction of Lns, separation factor Gd/La; conditions: 13 mM Ligand 2 used instead of ligand 1; 0.1 M DGA; 1 M HNO3; 1 h
[9] = Solvent extraction of Lns, distribution ratio of Gd; conditions: 13 mM Ligand 2 used instead of ligand 1; 0.1 M DGA; 1 M HNO3; 1 h
[10] = Solvent extraction of Lns, separation factor Tb/Gd; conditions: 0.1 M DGA, 1 M HNO3, 1 h
Experimental: as §1, §2, §3

[11] = Solvent extraction of Lns, separation factor Dy/Nd; conditions: 0.1 M DGA, 1 M HNO3, 1 h
Experimental: as §1, §2, §3

[12] = Solvent extraction of Lns, distribution ratio of Nd; conditions: 13 mM Ligand 2 used instead of ligand 1; 0.1 M DGA; 1 M HNO3; 1 h
[13] = Solvent extraction of Lns, distribution ratio of Sm; conditions: 0.1 M DGA, 1 M HNO3, 1 h
Experimental: as §1, §2, §3

[14] = Solvent extraction of Lns, separation factor Nd/Pr; conditions: 0.1 M DGA, 1 M HNO3, 1 h
Experimental: as §1, §2, §3

[15] = Solvent extraction of Lns, separation factor Gd/La; conditions: for SFGd/La separation factor: 0.1 M DGA, 1 M HNO3, 1 h
Experimental: as §1, §2, §3

[16] = Solvent extraction of Lns, separation factor Sm/Nd; conditions: 13 mM Ligand 2 used instead of ligand 1; 0.1 M DGA; 1 M HNO3; 1 h
[17] = Solvent extraction of Lns, separation factor Dy/Nd; conditions: 13 mM Ligand 2 used instead of ligand 1; 0.1 M DGA; 1 M HNO3; 1 h
[18] = Solvent extraction of Lns, separation factor Nd/Pr; conditions: 13 mM Ligand 2 used instead of ligand 1; 0.1 M DGA; 1 M HNO3; 1 h
[19] = Solvent extraction of Lns, distribution ratio of Gd; conditions: 0.1 M DGA, 1 M HNO3, 1 h
Experimental: as §1, §2, §3

Structure (SMILES): CCCCCCCCN(C)C(=O)COCC(=O)N(C)CCCCCCCC [Ligand 3, N,N′-dimethyl-N,N′-di(n-octyl)diglycolamide]
- highest selectivity for Nd-Pr pair ([1]; 2.5 mM Nd and Pr each, 13 mM of 1 in 1 M HNO3, 0.1 M Ligand 3 in oil phase, 30 min, 25.5° C.): 4.9±0.2
- time for the separation of Nd and Pr to reach equilibrium ([1]; 1 and Ligand 3): less than 1 hour
- recovery of Nd and Pr from the spent oil phase ([1]; three consecutive contacts with an equal volume of deionized water): Near-quantitative recovery
- SFSm/Nd separation factor ([2]; [1] 0 mM): 3.2
- SFSm/Nd separation factor ([2]; [1] 3 mM): 20
- SFSm/Nd separation factor ([2]; [1] 13 mM): 6.4
- SFSm/Nd separation factor ([2]; [1] 25 mM): 18
- DLa distribution ratio ([3]; [1] 0 mM, 0.1 M DGA in n-dodecane with 10 vol % 1-octanol, 0.5 mM each Ln): 71
- DLa distribution ratio ([3]; [1] 3 mM, 0.1 M DGA): 0.59
- DLa distribution ratio ([3]; [1] 13 mM, 0.1 M DGA): 0.28
- DLa distribution ratio ([3]; [1] 25 mM, 0.1 M DGA): 0.23
- extraction of Lns from the aqueous phase into the oil phase [4]: nearly quantitatively extracted all Lns
- DSm distribution ratio [5]: 163
- DNd distribution ratio ([6]; [1] 0 mM): 558
- DNd distribution ratio ([6]; [1] 3 mM): 11.0
- DNd distribution ratio ([6]; [1] 13 mM): 10.7
- DNd distribution ratio ([6]; [1] 25 mM): 2.34
- DLa distribution ratio [7]: 2.65
- SFGd/La separation factor [8]: 136
- DGd distribution ratio [9]: 360
- SFTb/Gd separation factor ([10]; 13 mM Ligand 2 used instead of ligand 1): 1.6
- SFTb/Gd separation factor ([10]; [1] 0 mM): 1.1
- SFTb/Gd separation factor ([10]; [1] 3 mM): 2.0
- SFTb/Gd separation factor ([10]; [1] 13 mM): 3.0
- SFTb/Gd separation factor ([10]; [1] 25 mM): 3.0
- SFDy/Nd separation factor ([11]; [1] 0 mM): 4.7
- SFDy/Nd separation factor ([11]; [1] 3 mM): 352
- SFDy/Nd separation factor ([11]; [1] 13 mM): 451
- SFDy/Nd separation factor ([11]; [1] 25 mM): 1313
- DNd distribution ratio [12]: 21.4
- DSm distribution ratio ([13]; [1] 0 mM): 1795
- DSm distribution ratio ([13]; [1] 3 mM): 222
- DSm distribution ratio ([13]; [1] 13 mM): 68.1
- DSm distribution ratio ([13]; [1] 25 mM): 42.2
- SFNd/Pr separation factor ([14]; [1] 0 mM): 2.1
- SFNd/Pr separation factor ([14]; [1] 3 mM): 4.0
- SFNd/Pr separation factor ([14]; [1] 13 mM): 4.2
- SFNd/Pr separation factor ([14]; [1] 25 mM): 3.2
- SFGd/La separation factor ([15]; [1] 0 mM): 36
- SFGd/La separation factor ([15]; [1] 3 mM): 2010
- SFGd/La separation factor ([15]; [1] 13 mM): 1992
- SFGd/La separation factor ([15]; [1] 25 mM): 1512
- times higher selectivity for Gd over La than the TDdDGA-DOODA(C2) system ([15]; combination of 1 and Ligand 3): ~2 times
- times higher selectivity for Gd over La than the TODGA-DOODA(C2) system ([15]; combination of 1 and Ligand 3): 20 times
- SFSm/Nd separation factor [16]: 7.6
- SFDy/Nd separation factor [17]: 60
- SFNd/Pr separation factor [18]: 2.3
- DGd distribution ratio ([19]; [1] 0 mM): 2531
- DGd distribution ratio ([19]; [1] 3 mM): 1192
- DGd distribution ratio ([19]; [1] 13 mM): 552
- DGd distribution ratio ([19]; [1] 25 mM): 346
